# Where two headings read alike, the source gives them in different places.
# Legend:
# [1] = tested on: OVCAR-3 cells (ovarian cancer); assay: Cell proliferation assay (MTS), OVCAR-3; assay type: cell-based; details: for IC50: 3 days treatment, MTS, read-out: IC50 (μM) Ovarian cancer OVCAR-3; for antiproliferative activity relative to RM-133, OVCAR-3: fold of RM-133 activity (>1 = more active)
# Experimental: (§1) The different aminosteroids were dissolved in methanol (50 mM).
# [2] = tested on: Human pancreas cancer cells (PANC-1); assay: Cell proliferation assay (MTS), PANC-1; assay type: cell-based; details: for IC50: 3 days treatment, MTS, read-out: IC50 (μM) Pancreatic cancer PANC-1; for antiproliferative activity relative to RM-133, PANC-1: fold of RM-133 activity (>1 = more active)
# Experimental: as §1
# [3] = tested on: HL-60 (acute promyelocytic leukemia) cells; assay: Cell proliferation assay (MTS), HL-60; assay type: cell-based; details: for IC50: 3 days treatment, MTS, read-out: IC50 (μM) HL-60 (leukemia); for antiproliferative activity relative to RM-133, HL-60: fold of RM-133 activity (>1 = more active)
# Experimental: as §1
# [4] = Metabolic stability assay, human liver microsomes; details: 1 h
# Experimental: (§2) Assays were performed at 37° C. for 1 h, with or without 10 mM NADPH in the presence of 40 μg of human liver microsome from Corning (Melrose, Mass., USA) and 10 μM of aminosteroid substrate in a final 100 μL volume of 50 mM Tris buffer (pH 7.4) supplemented with 10 mM MgCl2. Assays were ended by adding 100 μL of MeOH followed by centrifugation at 13,000 g for 10 min to obtain a pellet of proteins. The supernatant of 2 assays was pooled and submitted to HPLC-MS analysis (Shimadzu LCMS-2020 APCI, Alltima HP C18 (250 mm×4.6 mm, 5 μm) column, MeOH:H2O gradient). Remaining substrate (expressed in %) was calculated by dividing the area under the curve of the substrate for the assays without NADPH by the area under the curve of the substrate for the assays with NADPH and multiplied by 100. Values represent the average of 2 independent experiments.
# [5] = human, 1 h
# Experimental: as §2
# [6] = tested on: PANC-1, BxPC-3, Hs766, OVCAR-3, Caov3, SKOV3, MCF-7, T-47D and LAPC-4 cell lines; assay: Cytotoxic activity screening at 5 and 1 μM on cancer cell lines; details: independently of the cancer cell line tested, result in words
# Experimental: The cell proliferation assay was performed using 3-(4,5-dimethylthiazol-2-yl)-5-(3-carboxymethoxyphenyl)2-(4-sulfophenyl)-2H-tetrazolium (MTS) (Cell Titer 96 Aqueous, Promega, Nepean, ON, Canada) as previously described [3, 4, 5]. Briefly, cells were plated in triplicate in 96-well plates (1×10^4 cells/well) in appropriate culture medium (total of 90 μL). Before each treatment, the cells were incubated at 37° C. in a 5% CO2 humidified atmosphere for 24 h. The different aminosteroids were dissolved in methanol (50 mM). The stock solutions were diluted at multiple concentrations with culture media in order to obtain the desired final concentration followed by the addition of 10 μL to each well, and the mixture incubated for 3 days. Following treatment, MTS (10 μL) was added to each well and the mixture was incubated for 4 h.
# [7] = tested on: PC-3 (prostate cancer) cells; assay: Cell proliferation assay (MTS), PC-3; assay type: cell-based; details: 72 h; 3 days treatment, MTS; read-out: IC50 (μM) Prostate cancer PC-3
# Experimental: as §1
# [8] = tested on: LAPC-4 (prostate cancer) cells; assay: Cell proliferation assay (MTS), LAPC-4; assay type: cell-based; details: Homo sapiens, LAPC4, 72 h, 3 days treatment, MTS; read-out: IC50 (μM) Prostate cancer LAPC-4
# Experimental: as §1
# [9] = tested on: LNCaP (prostate cancer) cells; assay: Cell proliferation assay (MTS), LNCaP; assay type: cell-based; details: Homo sapiens, 72 h, 3 days treatment, MTS, read-out: IC50 (μM) Prostate cancer LNCaP
# Experimental: as §1
# [10] = tested on: MCF-7 breast cancer cells; assay: Cell proliferation assay (MTS), MCF-7; assay type: cell-based, human; details: Homo sapiens, MCF7, 72 h, 3 days treatment
# Experimental: as §1
# [11] = tested on: T-47D breast cancer cell line; assay: Cell proliferation assay (MTS), T-47D; assay type: cell-based; details: Homo sapiens, T47D, 72 h; 3 days treatment, MTS
# Experimental: as §1
# [12] = tested on: primary ovary normal cells; assay: cells; assay type: cell-based, human; details: for Selectivity Index Ovary: IC50 normal cells/IC50 cancer cells (primary ovary / OVCAR-3); for IC50: human normal cells, read-out: IC50 (μM) Primary Ovary (normal cells)
# Experimental: as §1
# [13] = tested on: primary pancreas normal cells; assay: Toxicity on normal cells (MTS), primary pancreas; assay type: cell-based, human; details: for Selectivity Index Pancreas: IC50 normal cells/IC50 cancer cells (primary pancreas / PANC-1); for IC50: human normal cells; for times more toxic relative to RM-133, primary pancreas cells: human, 3 days
# Experimental: as §1
# [14] = tested on: renal proximal tubule epithelial cells (RPTEC); assay: Toxicity on normal cells (MTS), RPTEC; assay type: cell-based, human; details: for IC50: normal (kidney) cells, read-out: IC50 (μM) RPTEC (normal cells)
# Experimental: as §1
compound,measurement,setting,value
"(3α,5α,17α)-pregn-20-yne-3,17-diol [11 (no side-chain; and 3α-OH)]",IC50,[1],> 50 µM
same,"antiproliferative activity relative to RM-133, OVCAR-3",[1],inactive
same,IC50,[2],> 50 µM
same,"antiproliferative activity relative to RM-133, PANC-1",[2],inactive
same,IC50,[3],> 50 µM
same,"antiproliferative activity relative to RM-133, HL-60",[3],inactive
"C#CC1(O)CCC2C3CCC4CC(O)C([N+]5([O-])CCN(C(=O)C6CCCN6C(=O)c6ccc7ccccc7n6)CC5)CC4(C)C3CCC21C [7 (N-oxime), {4-[(2β,3α,5α,17α)-3,17-dihydroxypregn-20-yn-2-yl]-4-oxidopiperazin-1-yl}[(2S)-1-(quinolin-2-ylcarbonyl)pyrrolidin-2-yl]methanone]",IC50,[1],29.9 µM
same,"antiproliferative activity relative to RM-133, OVCAR-3",[1],significant loss of activity
same,IC50,[2],> 50 µM
same,"antiproliferative activity relative to RM-133, PANC-1",[2],significant loss of activity
same,IC50,[3],43.7 µM
same,"antiproliferative activity relative to RM-133, HL-60",[3],significant loss of activity
same,increased metabolic stability relative to RM-133,[4]; human hepatic microsomes,2.6 fold
"C#C[C@@]1(O)CC[C@H]2[C@@H]3CC[C@H]4C[C@H](OC(=O)N(C)C)CC[C@]4(C)[C@H]3CC[C@@]21C [12 (no side-chain; and 3-carbamate), (3α,5α,17α)-17-hydroxypregn-20-yn-3-yl dimethylcarbamate]",IC50,"[1]; Homo sapiens, OVCAR-3, 72 h",48.1 µM
same,"antiproliferative activity relative to RM-133, OVCAR-3",[1],inactive
same,IC50,"[2]; Homo sapiens, PANC-1, 72 h",> 50 µM
same,"antiproliferative activity relative to RM-133, PANC-1",[2],inactive
same,IC50,"[3]; Homo sapiens, HL-60, 72 h",15.2 µM
same,"antiproliferative activity relative to RM-133, HL-60",[3],inactive
"C#C[C@@]1(O)CC[C@H]2[C@@H]3CC[C@H]4C[C@@H](N5CCN(C(=O)[C@@H]6CCCN6C(=O)c6ccc7ccccc7n6)CC5)CC[C@]4(C)[C@H]3CC[C@@]21C [15 (side-chain at 3β), {4-[(3β,5α,17α)-17-hydroxypregn-20-yn-3-yl]piperazin-1-yl}[(2S)-1-(quinolin-2-ylcarbonyl)pyrrolidin-2-yl]methanone]",IC50,"[1]; Homo sapiens, OVCAR-3, 72 h",> 50 µM
same,"antiproliferative activity relative to RM-133, OVCAR-3",[1],completely inactive
same,IC50,"[2]; Homo sapiens, PANC-1, 72 h",> 50 µM
same,"antiproliferative activity relative to RM-133, PANC-1",[2],completely inactive
same,IC50,"[3]; Homo sapiens, HL-60, 72 h",> 50 µM
same,"antiproliferative activity relative to RM-133, HL-60",[3],completely inactive
same,metabolic stability (% of remaining compound),"[5]; microsomes, 10 μM, pH 7.4",little to no variation on the metabolic stability relative to RM-133
"C#Cc1cc2c(cc1N1CCN(C(=O)[C@@H]3CCCN3C(=O)c3ccc4ccccc4n3)CC1)[C@H]1CC[C@@]3(C)[C@@H](CC[C@@]3(O)C#C)[C@@H]1CC2 [Compound 17a, {4-[(17β)-3,17-diethynyl-17-hydroxyestra-1,3,5(10)-trien-2-yl]piperazin-1-yl}[(2S)-1-(quinolin-2-ylcarbonyl)pyrrolidin-2-yl]methanone]",cytotoxic activity in screening (cell survival),[6],only slight differences in their respective levels of activity
"(2β,3α,5α,17α)-3,17-dihydroxy-2-(1-methyl-4-t[(2S)-1-(quinolin-2-ylcarbonyl) pyrrolidin-2-yl]carbonylpiperazin-1-ium-1-yl)pregn-20-yne iodide [6 (CH3-salt)]",IC50,[1],> 50 µM
same,"antiproliferative activity relative to RM-133, OVCAR-3",[1],significant loss of activity
same,IC50,[2],> 50 µM
same,"antiproliferative activity relative to RM-133, PANC-1",[2],significant loss of activity
same,IC50,[3],> 50 µM
same,"antiproliferative activity relative to RM-133, HL-60",[3],significant loss of activity
same,increased metabolic stability relative to RM-133,[5]; microsomes,2.4 fold
"C#C[C@@]1(O)CC[C@H]2[C@@H]3CCc4cc(OS(N)(=O)=O)c(N5CCN(C(=O)[C@@H]6CCCN6C(=O)c6ccc7ccccc7n6)CC5)cc4[C@H]3CC[C@@]21C [Compound 4, (17β)-17-ethynyl-17-hydroxy-2-{4-[1-(quinolin-2-ylcarbonyl)-L-prolyl]piperazin-1-yl}estra-1,3,5(10)-trien-3-yl sulfamate]",IC50,[7],1.6 ± 0.1 µM
same,IC50,[8],0.3 ± 0.2 µM
same,IC50,[9],0.9 ± 0.3 µM
same,IC50,[10],1.2 ± 0.4 µM
same,IC50,[11],0.2 ± 0.01 µM
same,IC50,"[1]; Homo sapiens, OVCAR-3, 72 h",3.1 ± 0.5 µM
same,IC50,"[2]; Homo sapiens, PANC-1, 72 h",3 ± 0.2 µM
same,"times less toxic relative to RM-133, primary ovary cells",[12],2.9 times
same,"times less toxic relative to RM-133, primary pancreas cells",[13],3.2 times
same,phenolic metabolite RM-581-OH (stability of potential prodrugs to hydrolysis),"[5]; 10 μM, pH 7.4",no trace of the phenolic metabolite RM-581-OH could be observed
"C#C[C@@]1(O)CC[C@H]2[C@@H]3CC[C@H]4CC(=O)[C@@H](N5CCN(C(=O)[C@@H]6CCCN6C(=O)c6ccc7ccccc7n6)CC5)C[C@]4(C)[C@H]3CC[C@@]21C [2 (ketone), (2β,5α,17α)-17-hydroxy-2-(4-{[(2S)-1-(quinolin-2-ylcarbonyl)pyrrolidin-2-yl]carbonyl}piperazin-1-yl)pregn-20-yn-3-one]",IC50,"[1]; Homo sapiens, OVCAR-3, 72 h",2.75 µM
same,"antiproliferative activity relative to RM-133, OVCAR-3",[1],2 fold
same,IC50,"[2]; Homo sapiens, PANC-1, 72 h",7.01 µM
same,IC50,"[3]; Homo sapiens, HL-60, 72 h",6.52 µM
same,Selectivity Index Ovary,[12],5.5
same,IC50,[12],15 µM
same,IC50,"[14]; Homo sapiens, RPTEC",20.7 µM
same,Selectivity Index Pancreas,[13],0.8
same,IC50,[13],5.41 µM
same,"times more toxic relative to RM-133, primary pancreas cells",[13],1.7 times
C#C[C@]1(O)CC[C@H]2[C@@H]3CCc4cc(OC)c(CN5CCN(C(=O)[C@@H]6CCCN6C(=O)c6ccc7ccccc7n6)CC5)cc4[C@H]3CC[C@@]21C [Compound 29],IC50,[7],1.7 ± 0.3 µM
same,IC50,[8],0.7 ± 0.2 µM
same,IC50,[9],1.3 ± 0.5 µM
same,IC50,[10],2.3 ± 0.6 µM
same,IC50,[11],0.4 ± 0.2 µM
same,IC50,"[1]; Homo sapiens, OVCAR-3, 72 h",5 ± 0.2 µM
same,IC50,"[2]; Homo sapiens, PANC-1, 72 h",2.6 ± 0.7 µM
"C#C[C@@]1(O)CC[C@H]2[C@@H]3CC[C@H]4CC(=O)C(N5CCN(C(=O)[C@@H]6CCCN6C(=O)c6ccc7ccccc7n6)CC5)=C[C@]4(C)[C@H]3CC[C@@]21C [1 (enone), (5α,17α)-17-hydroxy-2-(4-{[(2S)-1-(quinolin-2-ylcarbonyl)pyrrolidin-2-yl]carbonyl}piperazin-1-yl)pregn-1-en-20-yn-3-one]",IC50,[7],0.002 µM
same,IC50,[8],0.03 µM
same,IC50,[9],0.002 µM
same,IC50,"[1]; Homo sapiens, OVCAR-3, 72 h",0.24 µM
same,"antiproliferative activity relative to RM-133, OVCAR-3",[1],22.9 fold
same,IC50,[2]; listed as Enone 1,0.6 µM
same,IC50,"[2]; Homo sapiens, PANC-1, 72 h",0.59 µM
same,"antiproliferative activity relative to RM-133, PANC-1",[2],11.3 fold
same,IC50,"[3]; Homo sapiens, HL-60, 72 h",3.16 µM
same,"antiproliferative activity relative to RM-133, HL-60",[3],2.3 fold
same,Selectivity Index Ovary,[12],38
same,IC50,[12],9.12 µM
same,"times more toxic relative to RM-133, primary ovary cells","[12]; human, 3 days",1.6 times
same,IC50,"[14]; Homo sapiens, RPTEC",4.5 to 15.3 µM
same,IC50,[14],4.55 µM
same,Selectivity Index Pancreas,[13],3.7
same,IC50,[13],2.2 µM
same,"times more toxic relative to RM-133, primary pancreas cells",[13],4.3 times
"C#C[C@@]1(O)CC[C@H]2[C@@H]3CCc4cc(OC)c(C(=O)N5CCN(C(=O)[C@@H]6CCCN6C(=O)c6ccc7ccccc7n6)CC5)cc4[C@H]3CC[C@@]21C [Compound 25, [(17β)-17-ethynyl-17-hydroxy-3-methoxyestra-1,3,5(10)-trien-2-yl](4-{[(2S)-1-(quinolin-2-ylcarbonyl)pyrrolidin-2-yl]carbonyl}piperazin-1-yl)methanone]",IC50,[7],1.7 ± 0.4 µM
same,IC50,[8],0.5 ± 0.2 µM
same,IC50,[9],0.8 ± 0.2 µM
same,IC50,[10],2.2 ± 0.1 µM
same,IC50,[11],0.3 ± 0.2 µM
same,IC50,"[1]; Homo sapiens, OVCAR-3, 72 h",5.2 ± 1.6 µM
same,IC50,"[2]; Homo sapiens, PANC-1, 72 h",3.5 ± 0.4 µM
"(17β)-17-ethynyl-17-hydroxy-2-{4-[1-(quinolin-2-ylcarbonyl)-L-prolyl]piperazin-1-yl}estra-1,3,5(10)-trien-3-yl dihydrogen phosphate [Compound 5]","times less toxic relative to RM-133, primary ovary cells",[12]; normal cells,1.7 times
same,"times less toxic relative to RM-133, primary pancreas cells",[13]; normal cells,1.8 times
"CN1CCN(C(=O)[C@@H]2CCCN2C(=O)c2ccc3ccccc3n2)CC1 [10 (side-chain only), (4-methylpiperazin-1-yl)[(2S)-1-(quinolin-2-ylcarbonyl)pyrrolidin-2-yl]methanone]",IC50,"[1]; Homo sapiens, OVCAR-3, 72 h",> 50 µM
same,"antiproliferative activity relative to RM-133, OVCAR-3",[1],completely inactive
same,IC50,"[2]; Homo sapiens, PANC-1, 72 h",> 50 µM
same,"antiproliferative activity relative to RM-133, PANC-1",[2],completely inactive
same,IC50,"[3]; Homo sapiens, HL-60, 72 h",> 50 µM
same,"antiproliferative activity relative to RM-133, HL-60",[3],completely inactive
same,metabolic stability (% of remaining compound),"[4]; 10 μM, 40 μg human liver microsomes, result in words",more stable than steroid 12 lacking the 2β-side chain or RM-133 itself
"(17β)-17-ethynyl-17-hydroxy-2-{4-[1-(quinolin-2-ylcarbonyl)-L-prolyl]piperazin-1-yl}estra-1,3,5(10)-trien-3-yl dimethylcarbamate [Compound 1]","more cytotoxic relative to RM-133, RPTEC",[14]; normal cells,5.0 fold
